Source: ChEMBL document CHEMBL1156249, “Highly effective binding of viologens by p-sulfonatocalixarenes for the treatment of viologen poisoning” (J Med Chem, 2009)
Activity calls are given as the source filed them. The calls are words filed in the database; no cut-off is given here.

Columns and labels:
Mus musculus [1] = experiment: Reduction of viologen poisoning in Kunming mouse assessed as change in body weight at 100 uL/20g body weight, iv administered 30 mins after viologen challenge for 13 days measured on day 14 (reference value: 14 g); type: functional
Mus musculus [2] = experiment: Reduction of viologen poisoning in Kunming mouse assessed as protection from viologen-associated pathological changes in lung at 100 uL/20g body weight, iv administered 2 hrs after viologen challenge for 13 days measured on day 14 by hematoxylin and eosin staining-based microscopy; type: functional, organism-based
[3] = Binding affinity to viologen diquat cation assessed as compound-viologen complex formation by NMR spectroscopy
[4] = Binding affinity to viologen paraquat cation at pH 7.2 by microcalorimetric titration method
[5] = Binding affinity to viologen diquat cation assessed as compound-viologen complex stability at pH 2 by isothermal calorimetry
Mus musculus [6] = experiment: Reduction of viologen poisoning in Kunming mouse assessed as viologen-associated mortality rate at 100 uL/20g body weight, iv administered 30 mins after viologen challenge for 13 days measured on day 14; type: functional; parameters: scale not given: the % may be the effect or the level left
Mus musculus [7] = experiment: Reduction of viologen poisoning in Kunming mouse assessed as protection from viologen-associated pathological changes in liver at 100 uL/20g body weight, iv for 13 days measured on day 14 by hematoxylin and eosin staining-based microscopy; type: functional, organism-based
[8] = Binding affinity to viologen paraquat cation assessed as compound-viologen complex formation by NMR spectroscopy
Mus musculus [9] = experiment: Reduction of viologen poisoning in Kunming mouse assessed as change in body weight at 100 uL/20g body weight, iv administered 2 hrs after viologen challenge for 13 days measured on day 14 (reference value: 14 g); type: functional
Mus musculus [10] = experiment: Reduction of viologen poisoning in Kunming mouse assessed as viologen-associated mortality rate at 100 uL/20g body weight, iv administered immediately after viologen challenge for 13 days measured on day 14; type: functional; parameters: scale not given: the % may be the effect or the level left
[11] = Binding affinity to viologen diquat cation assessed as decrease in hydroxyl radical production at pH 7.2 by cyclic voltammetry
Mus musculus [12] = experiment: Reduction of viologen poisoning in Kunming mouse assessed as change in body weight at 100 uL/20g body weight, iv administered 1 hr after viologen challenge for 13 days measured on day 14 (reference value: 14 g); type: functional
[13] = Binding affinity to viologen diquat cation assessed as compound-viologen complex stability at pH 7.2 by isothermal calorimetry
Mus musculus [14] = experiment: Toxicity in Kunming mouse assessed as change in body weight at 100 uL/20g body weight, iv for 13 days measured on day 14 (reference value: 32.8 +/- 3.8 g); type: organism-based; conditions: in vivo, 312 h
Mus musculus [15] = experiment: Reduction of viologen poisoning in Kunming mouse assessed as viologen-associated mortality rate at 100 uL/20g body weight, iv administered 1 hr after viologen challenge for 13 days measured on day 14; type: functional; parameters: scale not given: the % may be the effect or the level left
Mus musculus [16] = experiment: Reduction of viologen poisoning in Kunming mouse assessed as protection from viologen-associated pathological changes in lung at 100 uL/20g body weight, iv administered 1 hr after viologen challenge for 13 days measured on day 14 by hematoxylin and eosin staining-based microscopy; type: functional, organism-based
[17] = Binding affinity to viologen diquat cation at pH 1.5 by microcalorimetric titration method
Mus musculus [18] = experiment: Reduction of viologen poisoning in Kunming mouse assessed as viologen-associated mortality rate at 100 uL/20g body weight, iv for 13 days measured on day 14; type: functional; parameters: scale not given: the % may be the effect or the level left
Mus musculus [19] = experiment: Reduction of viologen poisoning in Kunming mouse assessed as viologen-associated mortality rate at 100 uL/20g body weight, iv administered 2 hrs after viologen challenge for 13 days measured on day 14; type: functional; parameters: scale not given: the % may be the effect or the level left
[20] = Binding affinity to viologen paraquat cation at pH 1.5 by microcalorimetric titration method
Mus musculus [21] = experiment: Reduction of viologen poisoning in Kunming mouse assessed as change in body weight at 100 uL/20g body weight, iv administered immediately after viologen challenge for 13 days measured on day 14 (reference value: 14 g); type: functional
[22] = Binding affinity to viologen diquat cation at pH 7.2 by microcalorimetric titration method
Mus musculus [23] = experiment: Reduction of viologen poisoning in Kunming mouse assessed as protection from viologen-associated pathological changes in lung at 100 uL/20g body weight, iv administered 30 mins after viologen challenge for 13 days measured on day 14 by hematoxylin and eosin staining-based microscopy; type: functional, organism-based
[24] = Binding affinity to viologen paraquat cation assessed as compound-viologen complex stability at pH 2 by isothermal calorimetry
Mus musculus [25] = experiment: Reduction of viologen poisoning in Kunming mouse assessed as change in body weight at 100 uL/20g body weight, iv for 13 days measured on day 14 (reference value: 14 g); type: functional
[26] = Binding affinity to viologen paraquat cation assessed as compound-viologen complex stability at pH 7.2 by isothermal calorimetry
[27] = Binding affinity to viologen paraquat cation assessed as decrease in hydroxyl radical production at pH 7.2 by cyclic voltammetry
Mus musculus [28] = experiment: Reduction of viologen poisoning in Kunming mouse assessed as protection from viologen-associated pathological changes in lung at 100 uL/20g body weight, iv administered immediately after viologen challenge for 13 days measured on day 14 by hematoxylin and eosin staining-based microscopy; type: functional, organism-based
Mus musculus [29] = experiment: Reduction of viologen poisoning in Kunming mouse assessed as protection from viologen-associated pathological changes in lung at 100 uL/20g body weight, iv for 13 days measured on day 14 by hematoxylin and eosin staining-based microscopy; type: functional, organism-based

Ks [5] | Activity [11] | Ks [13] | Ks [24] | Ks [26] | Activity [27] | Structure (SMILES) | Activity [3] | Activity [4] | Activity [8] | Activity [17] | Activity [20] | Activity [22] | further results
5.4 10^5/M | Active | 7.95 10^5/M | 3.09 10^4/M | 9.33 10^4/M | Active | O=S(=O)(O)c1cc2c(O)c(c1)Cc1cc(S(=O)(=O)O)cc(c1O)Cc1cc(S(=O)(=O)O)cc(c1O)Cc1cc(S(=O)(=O)O)cc(c1O)C2 | Active | Active | Active | Active | Active | Active | 
2.39 10^4/M | Active | 4.57 10^4/M | 2.22 10^3/M | 8.68 10^3/M | Active | O=S(=O)(O)c1cc2c(O)c(c1)Sc1cc(S(=O)(=O)O)cc(c1O)Sc1cc(S(=O)(=O)O)cc(c1O)Sc1cc(S(=O)(=O)O)cc(c1O)S2 |  |  |  |  |  |  | 

Structure (SMILES) | Ks [5] | Activity [11] | Ks [13] | Ks [24] | Ks [26] | Activity [27] | Activity [3] | Activity [4] | Activity [8] | Activity [17] | Activity [20] | Activity [22] | further results
O=S(=O)(O)c1cc2c(O)c(c1)Cc1cc(S(=O)(=O)O)cc(c1O)Cc1cc(S(=O)(=O)O)cc(c1O)Cc1cc(S(=O)(=O)O)cc(c1O)Cc1cc(S(=O)(=O)O)cc(c1O)C2 | 1.12 10^5/M | Active | 3.23 10^6/M | 5.5 10^3/M | 2.51 10^5/M | Active | Active | Active | Active | Active | Active | Active | Activity (Mus musculus [1]): 31 g; Activity (Mus musculus [2]): Active; Activity (Mus musculus [6]): 40%; Activity (Mus musculus [7]): Active; Activity (Mus musculus [9]): 31 g; Activity (Mus musculus [10]): 40%; Activity (Mus musculus [12]): 31 g; Activity (Mus musculus [14]): 33.4 g; Activity (Mus musculus [15]): 0%; Activity (Mus musculus [16]): Active; Activity (Mus musculus [18]): 20%; Activity (Mus musculus [19]): 40%; Activity (Mus musculus [21]): 31 g; Activity (Mus musculus [23]): Active; Activity (Mus musculus [25]): 30.8 g; Activity (Mus musculus [28]): Active; Activity (Mus musculus [29]): Active
